This note sets out measurements from patent publication US20150119352A1, “DINUCELOSIDE POLYPHOSPHATES FOR THE TREATMENT OF PAIN” (GlobalAcorn Ltd., priority 2012, published 2015).

Assay [1] deals with native P2X3 receptors, trigeminal ganglia (TG) neurons. Put plainly: α,β-meATP-induced currents in cultured trigeminal ganglia neurons. Format: cell-based, rat. The conditions noted are these: 1 μM, TG neurons. The protocol:
(§1) Rat trigeminal (TG), nodose (NG) or dorsal root ganglion (DRG) neurons in culture were prepared as described previously (Sokolova et al., 2001; Simonetti et al., 2006). Neurons were plated on poly-L-lysine (0.2 mg/mL)-coated Petri dishes and cultured for 1 to 2 days under an atmosphere containing 5% CO2. Cells were used within 2 days of plating when they lacked processes. HEK293T cells were prepared as reported previously (Fabbretti et al., 2004; Sokolova et al., 2004) and transfected with rat full-length P2X3 cDNA subcloned into pIRES2-EGFP (Clontech, Mountain View, Calif., USA).
(§2) Trigeminal, nodose, DRG neurons or HEK cells were recorded in the whole-cell configuration while being continuously superfused (at 2 mL/min) with control solution containing (in mM): 152 NaCl, 5 KCl, 1 MgCl2, 2 CaCl2, 10 glucose, and 10 HEPES; pH was adjusted to 7.4 with NaOH and osmolarity was adjusted to 320 mOsM with glucose. […] Responses to selective P2X3 receptor agonist α,β-methylene-ATP (α,β-meATP; resistant to ectoATPase hydrolysis, Sigma-Aldrich) were measured using an EPC-9 amplifier and HEKA Patch Master software (HEKA Electronik, Germany). Cells were voltage-clamped at −70 mV. In most cells, series resistance was compensated by 80%. […]
(§3) The peak amplitudes of the responses were measured using HEKA Patch Master software. […]

Assay [2] addresses T1, native P2X3 receptors, trigeminal ganglia (TG) neurons (Rattus norvegicus, UniProt P49654).
T1 construct: Modulation of Native P2X3 Receptors in Rat Cultured Sensory Neurons; endogenous in cells; host or cells: primary cultured rat trigeminal ganglion and dorsal root ganglion neurons
T1 sequence (P49654 1-397): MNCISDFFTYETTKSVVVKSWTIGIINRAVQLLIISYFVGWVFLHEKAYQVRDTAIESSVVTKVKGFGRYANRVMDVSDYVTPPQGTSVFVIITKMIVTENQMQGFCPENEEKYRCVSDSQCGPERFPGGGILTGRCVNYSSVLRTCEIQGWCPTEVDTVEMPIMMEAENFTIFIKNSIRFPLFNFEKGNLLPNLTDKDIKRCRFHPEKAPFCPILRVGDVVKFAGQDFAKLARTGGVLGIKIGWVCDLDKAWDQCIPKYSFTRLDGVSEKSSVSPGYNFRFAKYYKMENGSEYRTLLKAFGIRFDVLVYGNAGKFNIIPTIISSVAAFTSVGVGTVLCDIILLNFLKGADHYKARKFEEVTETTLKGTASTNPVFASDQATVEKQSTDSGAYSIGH
The assay is described as above. Particulars: read-out: inhibition (suppression) of the peak current. In kind it is cell-based. The protocol:
as §1, §2, §3

For assay [3], the system named is native P2X3 receptors, dorsal root ganglia (DRG) neurons. The assay is described as follows: α,β-meATP-induced currents in cultured dorsal root ganglia neurons. In kind it is cell-based, rat. Particulars: 1 μM, DRG neurons. Here is the method: as §1, §2, §3
Assay [4] addresses T2, native P2X3 receptors, dorsal root ganglia (DRG) neurons (Rattus norvegicus, UniProt P49654).
T2 construct: Modulation of Native P2X3 Receptors in Rat Cultured Sensory Neurons; endogenous in cells; host or cells: primary cultured rat trigeminal ganglion and dorsal root ganglion neurons
T2 sequence (P49654 1-397): T1 sequence (P49654 1-397)
Described as above. In kind it is cell-based. The conditions noted are these: DRG neuron, read-out: inhibition (suppression) of the peak current. Here is the method:
as §1, §2, §3

One may read the inhibition as the share of the control response that was lost under treatment. With `Nc1ncnc2c1ncn2[C@@H]1O[C@H](COP(=O)(O)OP(=O)(O)NP(=O)(O)OP(=O)(O)OC[C@H]2O[C@@H](n3cnc4c(N)ncnc43)C(O)C2O)C(O)C1O` (stereo in doubt) [AppNHppA], the figures for the “inhibition of sustained residual component” value in assay [1] and in assay [3] were 15±6% and 18±6%, respectively. The inhibition at 1 µM in assay [2] is 80.3 ± 4.4%; in assay [4] it was 79.2 ± 5.6%.
